# Experimental data as given in patent publication EP0195316A1, “Quinolonecarboxylic acid derivatives” (KYORIN PHARMACEUTICAL CO., LTD., priority 1985, dated 1986).
# Where two headings read alike, the source gives them in different places.
# Columns and labels:
# [1] = system: Escherichia coli NIHJ JC-2; test: MIC, in vitro antibacterial activity (standard strains); assay type: cell-based; conditions: NIHJJC2
# [2] = system: K. pneumoniae 1-220S; test: as above; assay type: cell-based; conditions: Klebsiella pneumoniae, 1220S
# [3] = system: Shigella sonnei IID 969; test: as above; assay type: cell-based; conditions: IID969; Shigella sonnei IID 969, 10^6 cells/ml, Gram -
# Method: (§1) Minimal inhibitory concentrations (MICs) were determined in accordance with the method recommended by Japan Society of Chemotherapy.
# [4] = system: E. coli ML 4707; test: In vivo antibacterial activity against systemic infections in mice; conditions: Escherichia coli
# Method: (§2) The infections were produced by intraperitoneal injection of suspension of the bacterial cells. The compounds were administered orally at an hour after the injection. Five male ICR mice were used for each dosage. […] The efficacy of the present compound are shown in Table 4 in comparison with those of the reference compounds.
# [5] = system: S. pneumoniae S-4288; test: as above; conditions: Streptococcus pneumoniae
# Method: as §2
# [6] = system: P. aeruginosa IID 1210; test: as above; conditions: Pseudomonas aeruginosa
# Method: as §2
# [7] = system: S. aureus Smith; test: as above; conditions: Staphylococcus aureus
# Method: as §2
# [8] = system: Proteus vulgaris IFO 3167; test: MIC, in vitro antibacterial activity (standard strains); assay type: cell-based; conditions: Proteus vulgaris, IFO3167
# [9] = system: Pst. microns UPI 5464-1; test: as above; assay type: cell-based; conditions: Pst. microns UPI 5464-1, 10^6 cells/ml, Gram +
# [10] = system: Bacteroides fragilis 2; test: Experimental local infection with anaerobic bacteria in granuloma pouches in rats; assay type: in vivo; conditions: pouch exudate, Mean ± S.D. (n=3)
# Method: Under ether anesthesia, male Wistar rats (7 weeks old) were injected subcutaneously on the back with 20 ml of germ-free air (sterilized by membrane filtration, 0.45 µm pore size) by means of a syringe. Continuously, an inflammatory reaction was induced by injecting one ml of sterile croton oil solution (1 % in olive oil) into the formed air pouch. After 2 days, the air was removed. On the eighth day, 0.5 ml of Bacteroides fragilis 2 culture (10^6 CFU/ml) were injected into bore granuloma pouches. Each compound was administered orally or subcutaneously at 2 hours after infection. […] During experiment, intake of food and water was free. It was known that the activity of the existing quinolonecarboxylic acid compounds against obligate anaerobic bacteria was very weak. […] This property is also one of excellent characters of the present comound.
# [11] = system: nalidixic acid-resistant Salmonella typhimurium TA98 strain (nal^r); test: Mutagenicity, reverse mutation assay; conditions: 0.5 µg/plate, S9-mix +, positive control
# From the text: As for antibacterial agents, assessment of mutagenicity using bacteria is somewhat difficult because of their activity on the test bacteria.
# [12] = system: S. aureus; test: MIC, in vitro antibacterial activity (clinical isolates); assay type: cell-based; conditions: Staphylococcus aureus, No. of strains 21
# Method: as §1
# [13] = system: P. pneumoniae; test: as above; assay type: cell-based; conditions: No. of strains 25
# Method: as §1
# [14] = system: E. coli; test: as above; assay type: cell-based; conditions: Escherichia coli, No. of strains 25
# Method: as §1
# [15] = system: P. aeruginosa; test: as above; assay type: cell-based; conditions: Pseudomonas aeruginosa
# [16] = system: B. catarrhalis; test: as above; assay type: cell-based; conditions: Moraxella catarrhalis
# [17] = system: S. epidermidis; test: as above; assay type: cell-based; conditions: Staphylococcus epidermidis, No. of strains 10
# [18] = system: P. maltophilia; test: as above; assay type: cell-based; conditions: Stenotrophomonas maltophilia, No. of strains 9
# [19] = system: S. pneumoniae; test: as above; assay type: cell-based; conditions: Streptococcus pneumoniae
# [20] = system: Campylobacter jejuni; test: as above; assay type: cell-based; conditions: No. of strains 20
# [21] = system: Alcaligenes sp.; test: as above; assay type: cell-based; conditions: No. of strains 9
# [22] = system: N. gonorrhoeae; test: as above; assay type: cell-based; conditions: Neisseria gonorrhoeae, No. of strains 16
# [23] = system: H. influenzae; test: as above; assay type: cell-based; conditions: Haemophilus influenzae, No. of strains 26
# [24] = system: N. meningitidis; test: as above; assay type: cell-based; conditions: Neisseria meningitidis, No. of strains 3
# [25] = system: S. marcescens; test: as above; assay type: cell-based; conditions: Serratia marcescens, No. of strains 20
# [26] = system: Acinetobacter sp.; test: as above; assay type: cell-based
# [27] = system: Bacteroides sp.; test: as above; assay type: cell-based; conditions: No. of strains 17
# [28] = system: S. pyogenes; test: as above; assay type: cell-based; conditions: Streptococcus pyogenes
# [29] = system: MR-S. aureus; test: as above; assay type: cell-based; conditions: Staphylococcus aureus, No. of strains 46
# [30] = system: E. faecalis; test: as above; assay type: cell-based; conditions: Enterococcus faecalis, No. of strains 5
# [31] = system: E. cloacae; test: as above; assay type: cell-based; conditions: Enterobacter cloacae
# [32] = system: C. freundii; test: as above; assay type: cell-based; conditions: Citrobacter freundii, No. of strains 9
# [33] = system: P. mirabilis; test: as above; assay type: cell-based; conditions: Proteus mirabilis, No. of strains 10
# [34] = system: M. morganii; test: as above; assay type: cell-based; conditions: Morganella morganii, No. of strains 8
# [35] = system: P. vulgaris; test: as above; assay type: cell-based; conditions: Proteus vulgaris, No. of strains 6
# [36] = system: C. perfringens KYA 13123; test: microbe, parasite or virus in culture; assay type: cell-based; conditions: Clostridium perfringens, KYA13123
# [37] = system: Streptococcus pyogenes (S-8); test: MIC, in vitro antibacterial activity (standard strains); assay type: cell-based; conditions: Streptococcus pyogenes
# [38] = system: Alcaligenes faecalis 0104002; test: as above; assay type: cell-based; conditions: Alcaligenes faecalis, 0104002
# [39] = system: S. pneumoniae IID 552; test: as above; assay type: cell-based; conditions: Streptococcus pneumoniae, IID552
# [40] = system: Klebsiella pneumoniae KY(GN)6445; test: as above; assay type: cell-based; conditions: Klebsiella pneumoniae
# [41] = system: F. varium KYA 8501; test: as above; assay type: cell-based; conditions: Fusobacterium varium, KYA8501
# [42] = system: B. thetaiotaomicron (0661); test: as above; assay type: cell-based; conditions: Bacteroides thetaiotaomicron
# [43] = ML4707, E. coli ML 4707 systemic infection (i.p.), male ICR mice, oral administration an hour after infection, read-out: ED50
# [44] = S4288, S. pneumoniae S-4288 systemic infection (i.p.), male ICR mice, oral administration an hour after infection, read-out: ED50
# [45] = IID1210, P. aeruginosa IID 1210 systemic infection (i.p.), male ICR mice, oral administration an hour after infection, read-out: ED50
structure (smiles),measurement,setting,value
"O=C(O)c1cn(C2CC2)c2cc(N3CCNCC3)c(F)cc2c1=O [CFLX, Ciprofloxacin]",MIC,"[1]; Escherichia coli NIHJ JC-2, 10^6 cells/ml, Gram -, read-out: MIC",≤ 0.006 µg/mL
same,MIC,[2],0.05 µg/mL
same,MIC,[3],≤ 0.006 µg/mL
same,ED50,"[4]; ML4707, po",1.5 mg/kg
same,ED50,"[5]; S4288, po",> 100 mg/kg
same,ED50,"[6]; IID1210, po",4.5 mg/kg
same,ED50,[7]; po,31 mg/kg
same,MIC,[8],≤ 0.006 µg/mL
same,MIC,[9],0.2 µg/mL
"CO[C@@]1(NC(=O)Cc2cccs2)C(=O)N2C(C(=O)O)=C(COC(N)=O)CS[C@@H]21 [CFX, cefoxitin]",Viable cells count (log) / ml,"[10]; 50 mg/kg, s.c., 6 hr",3.9 ± 0.25 (log) / ml
same,Viable cells count (log) / ml,"[10]; 50 mg/kg, s.c., 24 hr",6.3 ± 0.31 (log) / ml
"CCC[C@@H]1C[C@@H](C(=O)N[C@@H]([C@H]2O[C@H](SC)[C@H](O)[C@@H](O)[C@H]2O)[C@H](C)Cl)N(C)C1 [CLDM, clindamycin]",Viable cells count (log) / ml,"[10]; 25 mg/kg, s.c., 6 hr",4.6 ± 0.058 (log) / ml
same,Viable cells count (log) / ml,"[10]; 25 mg/kg, s.c., 24 hr",6.4 ± 0.38 (log) / ml
"Nc1ccc2cc3ccccc3cc2c1 [Example 2AA, 2-Aminoanthracene]",His^+ revertants per plate,[11],277
"Cc1ncc([N+](=O)[O-])n1CCO [MND, metronidazole]",Viable cells count (log) / ml,"[10]; 50 mg/kg, p.o., 6 hr",5.2 ± 0.10 (log) / ml
same,Viable cells count (log) / ml,"[10]; 50 mg/kg, p.o., 24 hr",5.7 ± 0.60 (log) / ml
"CCn1cc(C(=O)O)c(=O)c2cc(F)c(N3CCNCC3)cc21 [NFLX, Norfloxacin]",MIC,[12],1.56 µg/mL
same,MIC,[13],0.78 µg/mL
same,MIC,[14],0.1 µg/mL
same,MIC,[15],1.56 µg/mL
same,MIC,[16],1.56 µg/mL
same,MIC,[17],0.78 µg/mL
same,MIC,[18],25 µg/mL
same,MIC,[19],12.5 µg/mL
same,MIC,[20],0.78 µg/mL
same,MIC,[21],100 µg/mL
same,MIC,[22],0.1 µg/mL
same,MIC,[23],0.2 µg/mL
same,MIC,[24],0.05 µg/mL
same,ED50,[4]; [43],8.9 mg/kg
same,ED50,[5]; [44],> 100 mg/kg
same,ED50,[6]; [45],18.9 mg/kg
same,MIC,[25],0.1 µg/mL
same,MIC,[26]; Acinetobacter,12.5 µg/mL
same,MIC,[27],50 µg/mL
same,MIC,[28],1.56 µg/mL
same,MIC,[29],25 µg/mL
same,MIC,[30],6.25 µg/mL
same,MIC,[31],0.1 µg/mL
same,MIC,[32],0.39 µg/mL
same,MIC,[33],0.1 µg/mL
same,MIC,[34],0.05 µg/mL
same,MIC,[35],0.05 µg/mL
"CC1COc2c(N3CCN(C)CC3)c(F)cc3c(=O)c(C(=O)O)cn1c23 (stereo not drawn) [OFLX, Ofloxacin]",MIC,[12],0.39 µg/mL
same,MIC,[13],0.78 µg/mL
same,MIC,[14],0.1 µg/mL
same,MIC,"[15]; clinical isolates P. aeruginosa, No. of strains 27, read-out: MIC",3.13 µg/mL
same,MIC,"[16]; clinical isolates B. catarrhalis, No. of strains 21, read-out: MIC",0.2 µg/mL
same,MIC,[17],0.39 µg/mL
same,MIC,[18],6.25 µg/mL
same,MIC,"[19]; clinical isolates S. pneumoniae, No. of strains 6, read-out: MIC",3.13 µg/mL
same,MIC,[20],0.39 µg/mL
same,MIC,[21],6.25 µg/mL
same,MIC,[22],0.05 µg/mL
same,MIC,[23],0.1 µg/mL
same,MIC,[24],0.025 µg/mL
same,ED50,[4]; [43],2.1 mg/kg
same,ED50,[5]; [44],> 100 mg/kg
same,ED50,[6]; [45],12.1 mg/kg
same,ED50,"[7]; S. aureus Smith systemic infection (i.p.), male ICR mice, oral administration an hour after infection, read-out: ED50",17 mg/kg
same,MIC,[25],0.2 µg/mL
same,MIC,"[26]; clinical isolates Acinetobacter sp., No. of strains 13, read-out: MIC",3.13 µg/mL
same,MIC,[27],3.13 µg/mL
same,MIC,"[28]; clinical isolates S. pyogenes, No. of strains 6, read-out: MIC",1.56 µg/mL
same,MIC,[29],1.56 µg/mL
same,MIC,[30],3.13 µg/mL
same,MIC,[31],0.1 µg/mL
same,MIC,[32],0.39 µg/mL
same,MIC,[33],0.2 µg/mL
same,MIC,[34],0.1 µg/mL
same,MIC,[35],0.1 µg/mL
"O=C(O)c1cn(C2CC2)c2c(F)c(N3CCNCC3)c(F)cc2c1=O [Ref.1, 1-Cyclopropyl-6,8-difluoro-1,4-dihydro-4-oxo-7-(1-piperazinyl)-3-quinoline-carboxylic acid]",MIC,[36],0.39 µg/mL
same,MIC,[1]; Escherichia coli,≤ 0.006 µg/mL
same,MIC,[37],0.39 µg/mL
same,MIC,[38],0.025 µg/mL
same,MIC,[2],0.05 µg/mL
same,MIC,[39],0.78 µg/mL
same,MIC,[40],0.0125 µg/mL
same,MIC,[3],≤ 0.006 µg/mL
same,MIC,[41],3.13 µg/mL
same,MIC,[42],3.13 µg/mL
